Laboratory results published in paper PMC10741027, “Risk Assessment of Psychotropic Drugs on Mitochondrial Function Using In Vitro Assays” (Biomedicines, 2023).
pIC50: −log10 of the molar value. Like-named read-outs stand apart in the source and are kept apart here.

What was measured:
[1] = literature values, plasma or serum of adult humans when possible; ref 68-88 (per drug, Table 2 Cmax Reference); cited from earlier work
HepG2 cells [2] = assay: Glu/Gal assay: cellular ATP (CellTiter-Glo) after 24 h in glucose or galactose media; details: for Effect on cell viability / ATP in Glu and Gal media (in words): 24 h incubation, top concentration; for AC50 / minimal effective concentration: Homo sapiens, HepG2, 24 h
HepG2 cells [3] = assay: Acute extracellular flux (AEF) assay in intact HepG2 cells (Seahorse XFe96); format: cell-based, human; details: Homo sapiens
CI-linked respiration = details: read-out: CI-linked respiration IC50, cited from earlier work
CII-linked respiration = details: read-out: CII-linked respiration IC50, cited from earlier work
[4] = test system: rPFO permeabilized HepG2 cells; assay: Mitochondrial respiratory complexes in rPFO permeabilized HepG2 cells (Seahorse XF); details: for AC50: Homo sapiens, HepG2, read-out: Pyruvate Respiration AC50
respiratory CI = test system: respiratory CI; parameters: method as in PMID 9309697; details: human brain cortex; read-out: CI inhibition IC50; cited from earlier work
[5] = test system: rat liver mitochondria (CII-linked respiration); assay: High-resolution respirometry, MMP and ROS in isolated rat liver mitochondria (Oroboros O2k); format: biochemical; details: for % MMP / % O2 consumption: basal succinate-driven respiration, normalized to control; for Mode of action on respiration in isolated RLM (in words): CII-linked respiration
Method: Mitochondria were isolated from adult Wistar Rat liver. […] The liver was homogenized with 10 passes in a loose-fitting homogenizer, followed by 10 passes in a tight-fitting homogenizer, and filtered through muslin. The tissue homogenate was then centrifuged at 1000× g for 10 min at 4 °C and the supernatants were further centrifuged at 10,000× g for 10 min. The centrifugation steps were repeated, preserving the pellet. […] Protein concentration was determined using the Bradford method with bovine serum albumin as the standard. The Oroboros® Oxygraph-2K (Oroboros Instruments, Innsbruck, Austria) was used to simultaneously analyze high-resolution respirometry and mitochondrial membrane potential (MMP). […] At the beginning of each experiment, the O2k chambers were filled with 2 mL of reaction buffer (200 mM sucrose, 25 mM KCl, 5 mM MgCl2, 4 mM KH2PO4, 5 mM MOPS, pH 7.4) and equilibrated with air at 37 °C. During the experiments, the incubation chambers were kept at constant temperature by Peltier control (±0.001 °C) and the medium was stirred using white PVDF-coated stirrers (750 rpm). […] This was followed by serial additions of the drugs to assess their dose-dependent effect on the MMP and mitochondrial respiration. Injection of RLM results in an uptake of safranin and a corresponding decline in the fluorescence signal.

[6] = HepG2, minimum effective concentration crossing vehicle control threshold, read-out: MEC ATP Production
[7] = HepG2, minimum effective concentration crossing vehicle control threshold, read-out: MEC ECAR
[8] = HepG2, minimum effective concentration crossing vehicle control threshold, read-out: MEC OCR
[9] = HepG2, minimum effective concentration crossing vehicle control threshold, read-out: MEC Reserve Capacity
[10] = HepG2, concentration at which 50% maximum effect is observed, read-out: AC50 ATP Production
[11] = HepG2, concentration at which 50% maximum effect is observed, read-out: AC50 ECAR
[12] = HepG2, concentration at which 50% maximum effect is observed, read-out: AC50 OCR
[13] = HepG2, concentration at which 50% maximum effect is observed, read-out: AC50 Reserve Capacity
[14] = HepG2, minimum effective concentration crossing vehicle control threshold, read-out: MEC Proton Leak
[15] = HepG2, concentration at which 50% maximum effect is observed, read-out: AC50 Proton Leak
[16] = isolated mitochondria, partial inhibition
[17] = HepG2, read-out: AC50 ATP Production
[18] = HepG2, read-out: AC50 Proton Leak
[19] = HepG2, read-out: AC50 Reserve Capacity

SMILES	Cmax [1]	minimal effective concentration (HepG2 cells [3]; [6])	minimal effective concentration (HepG2 cells [3]; [8])	minimal effective concentration (HepG2 cells [3]; [9])	AC50 (HepG2 cells [3]; [10])	AC50 (HepG2 cells [3]; [11])	AC50 (HepG2 cells [3]; [12])	AC50 (HepG2 cells [3]; [13])	AC50 (HepG2 cells [2]; read-out: Gal AC50)	minimal effective concentration (HepG2 cells [2]; read-out: Gal MEC)	minimal effective concentration (HepG2 cells [3]; [14])	AC50 (HepG2 cells [3]; [15])	AC50 (HepG2 cells [2]; read-out: Glu AC50)	minimal effective concentration (HepG2 cells [2]; read-out: Glu MEC)	further results
CCN1CCCC1CNC(=O)c1cc(S(=O)(=O)CC)c(N)cc1OC (stereo not drawn) [Amisulpride]	2560 nM														Effect on cell viability / ATP in Glu and Gal media (in words) (HepG2 cells [2]): did not show any effect on ATP production in any of the media conditions
O=C1CCc2ccc(OCCCCN3CCN(c4cccc(Cl)c4Cl)CC3)cc2N1 [Aripiprazole]	700 nM	3.49 µM	2.06 µM	0.344 µM	> 10 µM	> 10 µM	> 10 µM	> 10 µM	9.17 µM	5.67 µM					minimal effective concentration (HepG2 cells [3]; [7]): 9.2 µM
NC(=O)N1c2ccccc2C=Cc2ccccc21 [Carbamazepine]	6300 nM	165 µM	13.1 µM	137 µM	363 µM	> 600 µM	> 600 µM	> 190 µM	> 600 µM	408 µM	97 µM	> 600 µM	> 600 µM		pIC50 (CI-linked respiration; [16]): 3.45; pIC50 (CII-linked respiration; [16]): 3.74
CN(C)CCCN1c2ccccc2Sc2ccc(Cl)cc21 [Chlorpromazine]	900 nM	94.2 µM	73.4 µM	78.4 µM	> 100 µM	> 100 µM	> 100 µM	> 100 µM	16.9 µM	10.5 µM	31 µM	> 100 µM	15.9 µM	10.7 µM	minimal effective concentration (HepG2 cells [3]; [7]): 15.6 µM; Most sensitive mechanism / response in permeabilized HepG2 assay (OCR) ([4]; in words): did not show a significant response; pIC50 (respiratory CI): 3.40; % MMP ([5]; 20 μM): 88%; % O2 consumption ([5]; 20 μM): 111%; % MMP ([5]; 50 μM): 79%; % O2 consumption ([5]; 50 μM): 125%; % MMP ([5]; 100 μM): 72%; % O2 consumption ([5]; 100 μM): 131%; Mode of action on respiration in isolated RLM (in words) [5]: uncoupler of OXPHOS; Mode of action on respiration in isolated RLM (in words) ([5]; listed as chlorpromazine): uncoupler in basal respiration and an ETC inhibitor under uncoupled respiration; pIC50 ([5]; CII-linked, succinate + rotenone, stimulated with 0.25 µM CCCP, 50–400 µM, read-out: IC50 uncoupled respiration): 3.87; ROS production ([5]; uncoupled respiration, increasing concentrations): reduction in the production of ROS; pIC50 (CI-linked respiration; pig brain mitochondria): 3.94
CN(C)CCCC1(c2ccc(F)cc2)OCc2cc(C#N)ccc21 (stereo not drawn) [Citalopram]	100 nM				> 10 µM	> 10 µM	> 10 µM	> 10 µM	> 10 µM	7.11 µM	7.17 µM	> 10 µM	> 10 µM	4.43 µM	reduction in cell viability (HepG2 cells [2]; 10 µM, both media conditions, 24 h): around 40%
O=C(CCCN1CCC(O)(c2ccc(Cl)cc2)CC1)c1ccc(F)cc1 [Haloperidol]	20 nM								78.6 µM	26 µM			57.5 µM	26.2 µM	% MMP ([5]; 20 μM): 88%; % O2 consumption ([5]; 20 μM): 85%; % MMP ([5]; 50 μM): 69%; % O2 consumption ([5]; 50 μM): 77%
Nc1nnc(-c2cccc(Cl)c2Cl)c(N)n1 [Lamotrigine]	4000 nM	14 µM			75.7 µM	> 100 µM	> 100 µM	> 100 µM	> 100 µM			> 100 µM	> 100 µM		Effect on cell viability / ATP in Glu and Gal media (in words) (HepG2 cells [2]): no cytotoxicity; pIC50 (CI-linked respiration; [16]): 3.48; pIC50 (CII-linked respiration; [16]): 3.42
Cc1cc2c(s1)Nc1ccccc1N=C2N1CCN(C)CC1 [Olanzapine]	20 nM														% MMP ([5]; 20 μM): 92%; % O2 consumption ([5]; 20 μM): 90%; decrease in the MMP ([5]; 50 µM): 10%; % MMP ([5]; 50 μM): 90%; % O2 consumption ([5]; 50 μM): 92%; % MMP ([5]; 50 μM, listed as olanzapine): mild dissipation of the membrane potential
CCC1(c2ccccc2)C(=O)NC(=O)NC1=O [Phenobarbital]									> 100 µM				> 100 µM		AC50 (HepG2 cells [3]; [17]): > 100 µM; AC50 (HepG2 cells [3]; HepG2, read-out: AC50 ECAR): > 100 µM; AC50 (HepG2 cells [3]; HepG2, read-out: AC50 OCR): > 100 µM; AC50 (HepG2 cells [3]; [18]): > 100 µM; AC50 (HepG2 cells [3]; [19]): > 100 µM
O=C1NC(=O)C(c2ccccc2)(c2ccccc2)N1 [Phenytoin]	30000 nM	197 µM	90.9 µM	1.45 µM	> 200 µM	> 200 µM	> 200 µM	26.6 µM	> 200 µM			> 200 µM	> 200 µM		minimal effective concentration (HepG2 cells [3]; [7]): 138 µM
CCC1(c2ccccc2)C(=O)NCNC1=O [Primidone]					> 100 µM	> 100 µM	> 100 µM	> 100 µM	> 100 µM			> 100 µM	> 100 µM		
OCCOCCN1CCN(C2=Nc3ccccc3Sc3ccccc32)CC1 [Quetiapine]	1880 nM	92.3 µM	19 µM	26.1 µM	> 150 µM		> 150 µM	124 µM	79 µM	57.7 µM			76.7 µM	49.3 µM	AC50 [4]: > 150 µM
COC(=O)[C@H]1[C@H]2C[C@@H]3c4[nH]c5cc(OC)ccc5c4CCN3C[C@H]2C[C@@H](OC(=O)c2cc(OC)c(OC)c(OC)c2)[C@@H]1OC [Reserpine]	0.4 nM	59.4 µM	60.3 µM		77.3 µM		> 100 µM		79 µM	19 µM	30 µM	36.8 µM	48.9 µM	6.68 µM	
C=C(C)[C@H]1Cc2c(ccc3c2O[C@@H]2COc4cc(OC)c(OC)cc4[C@@H]2C3=O)O1 [Rotenone]									0.00605 µM	0.002 µM			27.8 µM	0.29 µM	AC50 (HepG2 cells [3]; [17]): 0.0459 µM; AC50 (HepG2 cells [3]; HepG2, read-out: AC50 ECAR): > 1 µM; AC50 (HepG2 cells [3]; HepG2, read-out: AC50 OCR): 0.0433 µM; AC50 (HepG2 cells [3]; [18]): 0.213 µM; AC50 (HepG2 cells [3]; [19]): 0.0106 µM; minimal effective concentration (HepG2 cells [3]; HepG2, read-out: MEC ATP Production): 0.0159 µM; minimal effective concentration (HepG2 cells [3]; HepG2, read-out: MEC ECAR): 0.0274 µM; minimal effective concentration (HepG2 cells [3]; HepG2, read-out: MEC OCR): 0.0053 µM; minimal effective concentration (HepG2 cells [3]; HepG2, read-out: MEC Proton Leak): 0.012 µM; minimal effective concentration (HepG2 cells [3]; HepG2, read-out: MEC Reserve Capacity): < 0.003 µM; AC50 [4]: 0.0071 µM
C=CC(N)CCC(=O)O (stereo not drawn) [Vigabatrin]	4000 nM				> 1000 µM	> 1000 µM	> 1000 µM	> 1000 µM	> 1000 µM			> 1000 µM	> 1000 µM		
O=C1Cc2cc(CCN3CCN(c4nsc5ccccc45)CC3)c(Cl)cc2N1 [Ziprasidone]	110 nM	0.95 µM			> 12.7 µM				> 40 µM	28.3 µM	0.12 µM	2.19 µM			pIC50 (CI-linked respiration; pig brain mitochondria): 3.73; pIC50 (CII-linked respiration; pig brain mitochondria): 4.07
